Where two headings read alike, the source gives them in different places.
Assays:
B. Cereus ATCC 11778 = experiment: MIC, NCCLS broth microdilution; type: cell-based, Bacillus cereus; details: A = B. Cereus ATCC 11778
Excerpt: (§1) In vitro biological activity data were collected for a variety of microorganisms, including Bacillus cereus (ATCC 11778), Staphylococcus aureus (ATCC 27660 (a methicillin resistant strain (MRSA), ATCC 33591 and ATCC 43300); ATCC 13709, a methicillin sensitive strain (MSSA)); Streptococcus pneumoniae (ATCC 51422, a penicillin resistant strain (PRSP)), Enterococcus faecium (ATCC 51559, a vancomycin resistant strain (VRE)), and Staphylococcus epidermidis (ATCC 700586, a methycillin resistant strain (MRSE)). Additionally, antifungal activity data were collected for Candida albicans (ATCC 38247). Minimal inhibition concentrations (MIC's) were determined using the National Committee for Clinical Laboratory Standards (NCCLS) broth microdilution assay in microtiter plates, as set forth in: (1) the guidelines of the National Committee for Clinical Laboratory Standards (NCCLS) Document M7-A4 (NCCLS, 1997); (2) the guidelines of the National Committee for Clinical Laboratory Standards (NCCLS) Document M11-A4 (NCCLS, 1997); and (3) the guidelines and reference method of the National Committee for Clinical Laboratory Standards (NCCLS) Document M27-T (NCCLS, 1995). For antifungal essays, the method recommended in Murray, PR., 1995 Manual of Clinical Microbiology (ASM Press, Washington, D.C.), was employed.

[1] = test system: E. faecium ATCC 51559 (vancomycin resistant strain, VRE); experiment: MIC, NCCLS broth microdilution; type: cell-based, Enterococcus faecium; details: B = E. faecium ATCC 51559
Excerpt: as §1

[2] = test system: S. aureus ATCC 13709 (methicillin sensitive strain, MSSA); experiment: MIC, NCCLS broth microdilution; type: cell-based, Staphylococcus aureus; details: C = S. aureus ATCC 13709
Excerpt: as §1

[3] = test system: S. aureus ATCC 27660 (methicillin resistant strain, MRSA); experiment: MIC, NCCLS broth microdilution; type: cell-based, Staphylococcus aureus; details: D = S. aureus ATCC 27660
Excerpt: as §1

S. aureus ATCC 33591 = experiment: MIC, NCCLS broth microdilution; type: cell-based, Staphylococcus aureus; details: E = S. aureus ATCC 33591
Excerpt: as §1

[4] = test system: S. epidermidis ATCC 700586 (methycillin resistant strain, MRSE); experiment: MIC, NCCLS broth microdilution; type: cell-based, Staphylococcus epidermidis; details: G = S. epidermidis ATCC 700586
Excerpt: as §1

[5] = test system: S. pneumoniae ATCC 51422 (penicillin resistant strain, PRSP); experiment: MIC, NCCLS broth microdilution; type: cell-based, Streptococcus pneumoniae; details: H = S. pneumoniae ATCC 51422
Excerpt: as §1

[6] = test system: Candida albicans (ATCC 38247); experiment: Antifungal MIC; type: cell-based
Excerpt: as §1, with “employed. The results are presented in Table A below, which is keyed as follows: […]” for “employed.”

[7] = test system: methycillin resistant Staphylococcus aureus ATCC 33591; experiment: Murine neutropenic thigh model; type: in vivo, mice; details: 50 mg/kg intravenously two hours post infection, 6 hr after treatment
Protocol: A S. aureus ATCC 33591 culture was grown to log phase overnight and diluted in phosphate buffered saline (pH 7.2) to an optical density of about 0.1 at 600 nm, giving an approximate concentration of 10^8 cfu/mL. The suspension was diluted 1:100 in phosphate buffered saline (pH 7.2) for a final concentration of 10^6 cfu/mL.
Outbred female CF1 mice (approx. 20 gram body weight) were rendered neutropenic by treatment with cyclophosphamide (200 mg/kg body weight, intraperitoneal injection) at 2 and 4 days prior to inoculation. Groups of 5 mice were inoculated with 0.05 mL of the bacteria (approx. 10^6 cfu/mL) into the anterior thigh. Each group was treated intravenously two hours post infection with vehicle (phosphate buffered saline) or test compound. The mice were sacrificed at either 6 or 24 hrs after treatment and thighs were collected aseptically. Each thigh was weighed, placed into sterile saline, and homogenized. The tissue homogenates were diluted appropriately for plating on agar plates. Colony counts were recorded (cfu/gram) and compared to control groups.
In vivo efficacy was shown by a decrease in colony count (log cfu/gram of tissue) in the compound-treated animals when compared against the colony count in animals given only the vehicle.

[8] = Staphylococcus aureus, read-out: Minimum Inhibitory Concentration (MIC)

Cn1cc(NC(=O)c2cc(NC(=O)c3cc4ccccc4cn3)no2)cc1C(=O)OCCN1CCOCC1 [Ib-61]
+++ (+++ = MIC ≦ 4): Minimum Inhibitory Concentration (MIC) (B. Cereus ATCC 11778) | Minimum Inhibitory Concentration (MIC) [1] | Minimum Inhibitory Concentration (MIC) [2] | Minimum Inhibitory Concentration (MIC) [3] | Minimum Inhibitory Concentration (MIC) (S. aureus ATCC 33591) | Minimum Inhibitory Concentration (MIC) [4] | Minimum Inhibitory Concentration (MIC) [5]

Cn1cc(NC(=O)c2cc3ccccc3cn2)cc1C(=O)Nc1cc(C(=O)Nc2cc(C(=O)NCCN3CCOCC3)n(CCN3CCOCC3)c2)n(C)c1 [Ib-56]
>32 µg/mL: Minimum Inhibitory Concentration (MIC) (B. Cereus ATCC 11778)
+++ (+++ = MIC ≦ 4): Minimum Inhibitory Concentration (MIC) [1] | Minimum Inhibitory Concentration (MIC) [2] | Minimum Inhibitory Concentration (MIC) [3] | Minimum Inhibitory Concentration (MIC) (S. aureus ATCC 33591) | Minimum Inhibitory Concentration (MIC) [4] | Minimum Inhibitory Concentration (MIC) [5]

Cn1cc(NC(=O)c2cc(NC(=O)c3cc(NC(=O)c4cc5ccccc5cn4)c[nH]3)cn2C)cc1C(=O)NCCN1CCOCC1 [Ib-50]
++ (++ = MIC between 4 and 12): MIC [6]
7.97 log cfu/gram: Colony Count (log cfu/gram) Compound [7]
+++ (+++ = MIC ≦ 4): Minimum Inhibitory Concentration (MIC) (B. Cereus ATCC 11778) | Minimum Inhibitory Concentration (MIC) [2] | Minimum Inhibitory Concentration (MIC) [3]

Cc1cc(NC(=O)c2cc(NC(=O)c3cc(NC(=O)c4cc5ccccc5cn4)cn3C)cn2CCCN(C)C)sn1 [Ib-66]
+++ (+++ = MIC ≦ 4): Minimum Inhibitory Concentration (MIC) (B. Cereus ATCC 11778) | Minimum Inhibitory Concentration (MIC) [1] | Minimum Inhibitory Concentration (MIC) [2] | Minimum Inhibitory Concentration (MIC) [3] | Minimum Inhibitory Concentration (MIC) (S. aureus ATCC 33591) | Minimum Inhibitory Concentration (MIC) [4] | Minimum Inhibitory Concentration (MIC) [5]

Cn1cc(NC(=O)c2cc(NC(=O)c3cc(NC(=O)c4cc5ccccc5cn4)c[nH]3)cn2C)cc1C(=O)NCCN1CCCCC1 [Ib-62]
+++ (+++ = MIC ≦ 4): Minimum Inhibitory Concentration (MIC) [1] | Minimum Inhibitory Concentration (MIC) [2] | Minimum Inhibitory Concentration (MIC) [3] | Minimum Inhibitory Concentration (MIC) (S. aureus ATCC 33591) | Minimum Inhibitory Concentration (MIC) [4] | Minimum Inhibitory Concentration (MIC) [5]
+ (+ = MIC from 12 to 32, inclusive): Minimum Inhibitory Concentration (MIC) (B. Cereus ATCC 11778)

Cn1cc(NC(=O)c2cc(NC(=O)c3cc(NC(=O)c4cc5ccccc5cn4)c[nH]3)cn2C)cc1C(=O)NCCc1ccccn1 [Ib-69]
>32 µg/mL: Minimum Inhibitory Concentration (MIC) (B. Cereus ATCC 11778)
+++ (+++ = MIC ≦ 4): Minimum Inhibitory Concentration (MIC) [1] | Minimum Inhibitory Concentration (MIC) [2] | Minimum Inhibitory Concentration (MIC) [3] | Minimum Inhibitory Concentration (MIC) (S. aureus ATCC 33591) | Minimum Inhibitory Concentration (MIC) [4] | Minimum Inhibitory Concentration (MIC) [5]

Cc1cc(NC(=O)c2cc(NC(=O)c3cc(NC(=O)c4cc5ccccc5cn4)cn3C)cn2CCN2CCOCC2)sn1 [Ib-63]
+++ (+++ = MIC ≦ 4): Minimum Inhibitory Concentration (MIC) (B. Cereus ATCC 11778) | Minimum Inhibitory Concentration (MIC) [1] | Minimum Inhibitory Concentration (MIC) [2] | Minimum Inhibitory Concentration (MIC) [3] | Minimum Inhibitory Concentration (MIC) (S. aureus ATCC 33591) | Minimum Inhibitory Concentration (MIC) [4] | Minimum Inhibitory Concentration (MIC) [5]

CN1CCN(CCCNC(=O)c2cc(NC(=O)c3sc4cc5c(cc4c3Cl)OCO5)cn2C)CC1 [Ib-20r]
+++ (+++ = MIC ≦ 4): Minimum Inhibitory Concentration (MIC) (B. Cereus ATCC 11778) | Minimum Inhibitory Concentration (MIC) [1] | Minimum Inhibitory Concentration (MIC) [2] | Minimum Inhibitory Concentration (MIC) [3] | Minimum Inhibitory Concentration (MIC) (S. aureus ATCC 33591) | Minimum Inhibitory Concentration (MIC) [4] | Minimum Inhibitory Concentration (MIC) [5]

Cn1cc(NC(=O)c2cc(NC(=O)c3cc(NC(=O)c4sc5ccccc5c4Cl)c[nH]3)cn2C)cc1C(=O)NCCN1CCCC1 [Ib-48]
< 4 µg/mL: MIC (B. Cereus ATCC 11778; Bacillus cereus, ATCC11778, read-out: Minimum Inhibitory Concentration (MIC)) | MIC [2, 8] | MIC [3, 8] | MIC (S. aureus ATCC 33591; Staphylococcus aureus, ATCC33591, read-out: Minimum Inhibitory Concentration (MIC)) | MIC ([4]; Staphylococcus epidermidis, read-out: Minimum Inhibitory Concentration (MIC)) | MIC ([5]; Streptococcus pneumoniae, read-out: Minimum Inhibitory Concentration (MIC)) | MIC ([6]; ATCC38247, read-out: MIC)
4 to 12 µg/mL: MIC ([1]; Enterococcus faecium, read-out: Minimum Inhibitory Concentration (MIC))
4.74 log cfu/gram: Colony Count (log cfu/gram) Compound [7]

Cn1cc(NC(=O)c2sc3cc4c(cc3c2Cl)OCO4)cc1C(=O)NCCN1CCSCC1 [Ib-20p]
+++ (+++ = MIC ≦ 4): Minimum Inhibitory Concentration (MIC) (B. Cereus ATCC 11778) | Minimum Inhibitory Concentration (MIC) [1] | Minimum Inhibitory Concentration (MIC) [2] | Minimum Inhibitory Concentration (MIC) [3] | Minimum Inhibitory Concentration (MIC) (S. aureus ATCC 33591) | Minimum Inhibitory Concentration (MIC) [4] | Minimum Inhibitory Concentration (MIC) [5]

Cn1cc(NC(=O)c2cc(NC(=O)c3sc4cc5c(cc4c3Cl)OCO5)cn2C)cc1C(=O)NCCN1CCOCC1 [Ib-20e]
+++ (+++ = MIC ≦ 4): Minimum Inhibitory Concentration (MIC) (B. Cereus ATCC 11778) | Minimum Inhibitory Concentration (MIC) [1] | Minimum Inhibitory Concentration (MIC) [2] | Minimum Inhibitory Concentration (MIC) [3] | Minimum Inhibitory Concentration (MIC) (S. aureus ATCC 33591) | Minimum Inhibitory Concentration (MIC) [4] | Minimum Inhibitory Concentration (MIC) [5]

Reference: patent publication US20040142971A1, “BENZOTHIOPHENE COMPOUNDS HAVING ANTIINFECTIVE ACTIVITY” (GeneSoft, Inc., priority 2001, published 2004)
